# Reference: ChEMBL document CHEMBL5726543, “Glucocerebrosidase modulators and uses thereof” (2017)
# Biological target: T1, Lysosomal acid glucosylceramidase (Homo sapiens, UniProt P04062)
# T1 sequence (P04062 whole entry): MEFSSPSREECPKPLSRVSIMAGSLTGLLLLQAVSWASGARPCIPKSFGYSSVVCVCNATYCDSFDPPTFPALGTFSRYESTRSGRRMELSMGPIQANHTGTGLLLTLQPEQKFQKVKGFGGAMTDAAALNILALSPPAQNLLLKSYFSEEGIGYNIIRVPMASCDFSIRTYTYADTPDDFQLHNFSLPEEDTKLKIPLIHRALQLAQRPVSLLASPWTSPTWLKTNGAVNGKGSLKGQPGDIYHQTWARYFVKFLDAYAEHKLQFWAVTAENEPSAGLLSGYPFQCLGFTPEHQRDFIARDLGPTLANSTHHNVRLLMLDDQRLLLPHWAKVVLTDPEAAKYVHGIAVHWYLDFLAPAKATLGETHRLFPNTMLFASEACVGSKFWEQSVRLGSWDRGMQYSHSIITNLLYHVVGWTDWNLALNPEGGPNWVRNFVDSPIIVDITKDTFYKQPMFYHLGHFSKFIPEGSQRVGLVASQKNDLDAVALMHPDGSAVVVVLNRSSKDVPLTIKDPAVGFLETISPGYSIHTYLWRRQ
# Description: The reaction solution consisted of 25 μL of 6 mM 4-methylumbelliferone-β-D glucopyranoside in 10% DMSO in the same buffer, 12.5 μL of enzyme and 12.5 μL of various concentrations of test compound diluted in buffer. […] The reaction was initiated by addition of enzyme and allowed to proceed for 20 min at 37° C. to assess GCase activity. […] IC50 values were determined by fitting the data to a log [inhibitor concentration] versus response curve using GraphPad Prism.
smiles,measurement,value
CCCC1(CCC)NC[C@@H](O)[C@H](O)[C@H]1CO,Ki,1400 nM
